From US7026353B2, “Inhibition of Gram positive bacteria” (Unisearch Limited, A.C.N., priority 1998, dated 2006)

Columns and labels:
[1] = system: mouse fibroblast cell line L292; assay: Cytotoxicity measured as inhibition of the growth of mouse fibroblast cells; type: cell-based; conditions: for Lowest concentration of furanones which significantly inhibited the growth of mouse fibroblast cell line: 30% depression of growth deemed significant
Description: (§1) All initial screening of six different furanones against growth of Staphylococcus aureus and Staphylococcus epidermidis was performed in a BioRad 3550 Microplate Reader. Ten percent (10%) of an overnight culture (10^8 cells/ml, resulting in final cell densities of 10^6 cells/ml) was added to the growth media. Nutrient Broth, containing furanones at the concentrations 10 and 1 μg/ml. The bacteria were incubated at 37° C. and growth was measured at […] for 9 hours. Cytotoxicity in mammalian systems was measured as inhibition of the growth of mouse fibroblast cells.

Staphylococcus aureus [2] = assay: Initial screening against growth in Nutrient Broth, microplate reader, 9 hours; type: cell-based; conditions: for % growth compared to the control value: after 9 hr
Description: as §1

[3] = system: Staphylococcus epidermidis; assay: as above; type: cell-based; conditions: for % growth compared to the control value: after 9 hr
Description: as §1

S. aureus 015 = assay: Effect on the growth of ocular bacteria in TSB; type: cell-based; conditions: for Effect on growth curves: S. aureus strains, FIGS. 3 to 5
Description: (§2) Strains were cultured in 5 ml of TSB with or without SUs in 35° C. water bath with agitation (120 rpm). Growth rates were monitored by reading OD660nm at time intervals of 1, 2, 3, 4, 5, 7, and 24 hours.

S. epidermidis 017 = assay: Effect on the growth of ocular bacteria in TSB; type: cell-based; conditions: for Percentage growth compared to the control values: after 24 h, TSB; for Effect on growth curves: S. epidermidis strains, FIGS. 3 to 5
Description: as §2

Enterococcus faecalis = assay: Screening against growth in NB, microplate reader, 24 hours; type: cell-based; conditions: 10 μg/ml, after 24 hr
Description: (§3) A screening of six different furanone compounds against growth of Staphylococcus aureus, Staphylococcus epidermidis. Streptococcus salivarius, Streptococcus pyogenes, Enterococcus faecalis and Micrococcus luteus was performed in) a BioRad 3550 Microplate Reader. Ten percent of overnight cultures were added to the growth media. NB containing furanones at the concentration 10 μg/ml. The bacteria were incubated at 37° C. and growth was measured at 595 nm for 24 hours.

Streptococcus salivarius = assay: as above; type: cell-based; conditions: 10 μg/ml, after 24 hr
Description: as §3

Staphylococcus aureus [4] = assay: as above; type: cell-based; conditions: 10 μg/ml, after 24 hr
Description: as §3

Micrococcus luteus = assay: as above; type: cell-based; conditions: 10 μg/ml, after 24 hr
Description: as §3

[5] = system: Staphylococcus epidermidis; assay: as above; type: cell-based; conditions: 10 μg/ml, after 24 hr
Description: as §3

Streptococcus pyogenes = assay: as above; type: cell-based; conditions: 10 μg/ml, after 24 hr
Description: as §3

Corynebacterium 003 = assay: Effect on the growth of ocular bacteria in TSB; type: cell-based, Corynebacterium sp; conditions: for Percentage growth compared to the control values: after 24 h, TSB
Description: as §2

Row | SMILES | Lowest concentration of furanones which significantly inhibited the growth of mouse fibroblast cell line [1] | % growth compared to the control value (Staphylococcus aureus [2]; 1 μg/ml) | % growth compared to the control value (Staphylococcus aureus [2]; 10 μg/ml) | % growth compared to the control value ([3]; 1 μg/ml) | % growth compared to the control value ([3]; 10 μg/ml) | % growth compared to the control value (Enterococcus faecalis) | % growth compared to the control value (Streptococcus salivarius) | % growth compared to the control value (Staphylococcus aureus [4]) | % growth compared to the control value (Micrococcus luteus) | % growth compared to the control value [5] | % growth compared to the control value (Streptococcus pyogenes) | other results
1 | CCCCC1=C(Br)C(=CBr)OC1=O [Compound 2] | 150 µg/mL | 87.9% | 57.9% | 63.7% | 53.2% | 77% | 86% | 58% | 86% | 53% | 87% | Effect on growth curves (S. aureus 015; 100 μg/ml): inhibited the growth; Percentage growth compared to the control values (S. epidermidis 017; 100 μg/ml): 7%; Effect on growth curves (S. epidermidis 017; 100 μg/ml): inhibited the growth; Inhibition of growth (Corynebacterium 003; 100 μg/ml): approximately 86%; Percentage growth compared to the control values (Corynebacterium 003; 100 μg/ml): 14%
2 | CCCC(OC(C)=O)C1=C(Br)C(=CBr)OC1=O (stereo not drawn) [Compound 4, reference compound] | 1 µg/mL | 84.2% | 34.3% | 77.1% | 53.2% | 75% | 85% | 34% | 75% | 53% | 0% | Toxicity against mammalian cell lines [1]: quite toxic
3 | O=C1C=C(Br)/C(=C/Br)O1 [Compound 30] | 20 µg/mL | 56.6% | 0% | 72.1% | 62.2% | 54% | 73% | 0% | 86% | 62% | 50% | Inhibition of growth (Staphylococcus aureus [2]; 10 ug/ml): completely inhibiting growth; Inhibition of growth ([3]; 10 ug/ml): completely inhibiting growth; Percentage growth compared to the control values (S. aureus 015; 10 μg/ml, after 24 h, TSB): 97%; Effect on growth curves (S. aureus 015; 10 μg/ml): only slowed down the growth; Percentage growth compared to the control values (S. epidermidis 017; 10 μg/ml): 91%; Effect on growth curves (S. epidermidis 017; 10 μg/ml): only slowed down the growth; Effect on growth (Corynebacterium 003; 10 μg/ml): only slowed down the growth; Percentage growth compared to the control values (Corynebacterium 003; 10 μg/ml): 90%; Growth reached (Corynebacterium 003; 20 μg/ml (as printed in text), after 24 h incubation): 90%
4 | CCCC(F)C1=C(Br)/C(=C/Br)OC1=O (stereo not drawn) [Compound 45] |  |  |  |  |  | 85% | 69% | 4% | 100% | 22% | 26% | 
